System: hyperuricemia model mice
Assay: Allopurinol-induced change in plasma uric acid level in hyperuricemia model mice
Type: in vivo, mouse
Procedure: The hyperuricemia model mice obtained as described above were subjected to administration of allopurinol, which is an existing drug for lowering blood uric acid levels. The number of the mice subjected to administration of allopurinol was six.
Allopurinol (Wako Pure Chemical Industries, Ltd.) was suspended in a 0.5 w/v% methylcellulose (MC) 400 solution (sterilized, Wako Pure Chemical Industries, Ltd.) for preparation of a 0.5 mg/mL allopurinol suspension. The 0.5 mg/mL allopurinol suspension was orally administered once in a volume of 10 mL/kg body weight (5 mg/kg body weight).
Blood was collected from each mouse before and 2, 4 and 24 hours after allopurinol or a 0.5 w/v % methylcellulose 400 solution was administered. The plasma uric acid concentration was measured in the same manner as above.

With `Oc1ncnc2[nH]ncc12` [allopurinol] the “mean of the plasma uric acid concentrations” value (2 hours after single oral 5 mg/kg body weight, 6 mice, mean before administration 3.8 mg/dL, vehicle control 3.0 before, 4.8 at 2 hours) was 1.9 mg/dL and the “change of plasma uric acid concentration by administration” value (single oral 5 mg/kg body weight, 2 hours after vs before administration) was “significantly reduced”.

— patent US10314295B2, “Mouse model of hyperuricemia” (PHOENIXBIO CO., LTD., priority 2014, dated 2019)
